How the values were obtained:
Format in all cases: functional
Tetranychus cinnabarinus [1] = experiment: Acaricidal activity against Tetranychus cinnabarinus (carmine spider mite) in kidney bean plants assessed as mortality at 1.25 mg/l after 48 hr relative to control
Tetranychus cinnabarinus [2] = experiment: Acaricidal activity against Tetranychus cinnabarinus (carmine spider mite) in kidney bean plants assessed as mortality at 2.5 mg/l after 48 hr relative to control
Tetranychus cinnabarinus [3] = experiment: Acaricidal activity against Tetranychus cinnabarinus (carmine spider mite) in kidney bean plants assessed as mortality at 5 mg/l after 48 hr relative to control
Tetranychus cinnabarinus [4] = experiment: Acaricidal activity against Tetranychus cinnabarinus (carmine spider mite) in kidney bean plants assessed as mortality at 10 mg/l after 48 hr relative to control
Tetranychus cinnabarinus [5] = experiment: Acaricidal activity against Tetranychus cinnabarinus (carmine spider mite) in kidney bean plants assessed as mortality at 20 mg/l after 48 hr relative to control
Tetranychus cinnabarinus [6] = experiment: Acaricidal activity against Tetranychus cinnabarinus (carmine spider mite) in kidney bean plants assessed as mortality at 40 mg/l after 48 hr relative to control
Tetranychus cinnabarinus [7] = experiment: Acaricidal activity against Tetranychus cinnabarinus (carmine spider mite) in kidney bean plants assessed as mortality at 38 mg/l after 48 hr relative to control
Tetranychus cinnabarinus [8] = experiment: Acaricidal activity against Tetranychus cinnabarinus (carmine spider mite) in kidney bean plants assessed as mortality at 150 mg/l after 48 hr relative to control
Tetranychus cinnabarinus [9] = experiment: Acaricidal activity against Tetranychus cinnabarinus (carmine spider mite) in kidney bean plants assessed as mortality at 600 mg/l after 48 hr relative to control
[10] = system: Blumeria graminis f. sp. tritici; experiment: Antifungal activity against Blumeria graminis f. sp. tritici infected seven-day-old wheat seedlings assessed as disease control at 1.56 mg/l after 7 days relative to control
[11] = system: Blumeria graminis f. sp. tritici; experiment: Antifungal activity against Blumeria graminis f. sp. tritici infected seven-day-old wheat seedlings assessed as disease control at 12.5 mg/l after 7 days relative to control
[12] = system: Blumeria graminis f. sp. tritici; experiment: Antifungal activity against Blumeria graminis f. sp. tritici infected seven-day-old wheat seedlings assessed as disease control at 400 mg/l after 7 days relative to control
[13] = system: Pseudoperonospora cubensis; experiment: Antifungal activity against Pseudoperonospora cubensis infected cucumber leaves assessed as disease control at 3.12 mg/l after 5 days relative to control
[14] = system: Pseudoperonospora cubensis; experiment: Antifungal activity against Pseudoperonospora cubensis infected cucumber leaves assessed as disease control at 6.25 mg/l after 5 days relative to control
[15] = system: Pseudoperonospora cubensis; experiment: Antifungal activity against Pseudoperonospora cubensis infected cucumber leaves assessed as disease control at 25 mg/l after 5 days relative to control
[16] = system: Pseudoperonospora cubensis; experiment: Antifungal activity against Pseudoperonospora cubensis infected cucumber leaves assessed as disease control at 400 mg/l after 5 days relative to control
Botrytis cinerea = experiment: Antifungal activity against Botryotinia fuckeliana infected cucumber leaves assessed as disease control at 400 mg/l after 4 days relative to control
Pyricularia oryzae = experiment: Antifungal activity against Magnaporthe oryzae infected 12 day old rice plant assessed as disease control at 400 mg/l after 6 days relative to control

SMILES	Activity (Tetranychus cinnabarinus [1]) [%]	Activity (Tetranychus cinnabarinus [2]) [%]	Activity (Tetranychus cinnabarinus [3]) [%]	Activity (Tetranychus cinnabarinus [4]) [%]	Activity (Tetranychus cinnabarinus [5]) [%]	Activity (Tetranychus cinnabarinus [6]) [%]	Activity (Tetranychus cinnabarinus [7]) [%]	Activity (Tetranychus cinnabarinus [8]) [%]	Activity (Tetranychus cinnabarinus [9]) [%]	Activity [10] [%]	Activity [11] [%]	Activity [12] [%]	Activity [13] [%]	Activity [14] [%]	Activity [15] [%]	Activity [16] [%]	Activity (Botrytis cinerea) [%]	Activity (Pyricularia oryzae) [%]
CO/C=C(/C(=O)OC)c1ccccc1COc1c(C)c(-c2ccc(C)cc2C)nn1C	28	36	85	89	100	100	100	100	100	90	100	100	80	98	100	100	50	100
CO/C=C(/C(=O)OC)c1ccccc1COc1c(C)c(-c2ccc(OC)cc2)nn1C [METHYL 3-METHOXY-2-(2-((3-(4-METHOXYPHENYL)-1,4-DIMETHYL-1H-PYRAZOL-5-YLOXY)METHYL)PHENYL)ACRYLATE]	–	–	–	–	–	–	0	0	90	95	100	100	55	96	100	100	100	100
CO/C=C(/C(=O)OC)c1ccccc1COc1cc(-c2ccc(Cl)cc2)nn1C [PYRAOXYSTROBIN]	–	–	–	–	–	–	0	0	100	0	75	100	100	100	100	100	100	100
CC(C)(C)c1ccc(CSc2cnn(C(C)(C)C)c(=O)c2Cl)cc1 [PYRIDABEN]	0	12	22	48	57	77	–	–	–	–	–	–	–	–	–	–	–	–

— ChEMBL document CHEMBL3045550, “Design, synthesis and biological activities of new strobilurin derivatives containing substituted pyrazoles” (2010)
